Experimental findings from ChEMBL document CHEMBL6134786, “Design and synthesis of novel 8-(azaindolyl)-benzoazepinones as potent and selective ROCK inhibitors” (RSC Med Chem, 2024) are described below.

Values after ≈ are worked out from the molar mass of the structure shown.

The nature of one data set: cells. The settings on record: Homo sapiens, Pulmonary Artery Smooth Muscle Cells, read-out: pEC50 (converted).
Data set [1] is described as follows: Metabolic stability in rat microsomes assessed as half life. The data set is classed as ADME, Microsome.
Data set [2] is described as follows: Kinetic solubility of the compound in PBS at pH 7.2. The data set is classed as physicochemical. Particulars: read-out: Kinetic_solubility.
The nature of data set [3]: Apparent permeability across apical to basolateral side in human Caco-2 cells. The data set is classed as ADME, cell-based.

In the case of `O=C1Cc2cc(-c3cn[nH]c3)ccc2CCN1c1ccccc1`, the EC50 in the data set “cells” is 398 nM.

`O=C1Cc2cc(-c3ccnc4[nH]ccc34)ccc2CCN1c1ccccc1`: the half-life in data set [1] was determined as 18 min. In addition, the EC50 in the data set “cells” is 12.6 nM. In addition, the solubility kinetic in data set [2] is < 5 µM. For the same molecule, the Papp A→B in data set [3] was found to be 26.9 ×10⁻⁶ cm/s.

Turning to `O=C1Cc2cc(-c3ncnc4[nH]ccc34)ccc2CCN1c1ccccc1`, the EC50 in the data set “cells” was 50.1 nM.

Regarding `COc1cccc(N2CCc3ccc(-c4ccnc5[nH]ccc45)cc3CC2=O)c1`, the EC50 in the data set “cells” was 31.6 nM.

Take `CN1CCN(CCCOc2cccc(N3CCc4ccc(-c5ccnc6[nH]ccc56)cc4CC3=O)c2)CC1`: the half-life in data set [1] is 8.4 min. For the same molecule, the EC50 in the data set “cells” is 5.01 nM. The Papp A→B in data set [3] amounted to 5.6 ×10⁻⁶ cm/s.

`O=C1CCc2ccc(-c3ccnc4[nH]ccc34)cc2CN1c1ccccc1`: in data set [2], the solubility kinetic turned out to be 131 µM (≈ 46.3 µg/mL).

Consider `Nc1cc(-c2ccc3c(c2)CC(=O)N(c2ccccc2)CC3)ccn1`, for which, in “cells”, the EC50 was 316 nM.

In general, half-life refers to how long it takes for the measured level to halve. Usually Papp A→B stands for how fast a substance crosses the layer from the apical side.
